Test results taken from PubChem BioAssay (NCI).
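Dose response: 5 concentrations. Exposure: 48 h. Format: 96-well plates. Endpoint: linear interpolation; highest concentration if not reached. The concentration for 50% growth inhibition is given as GI50. At the TGI there is no net growth.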

Tests used:
Assay in all cases: growth of human tumour cells (NCI), 48 h
786-0 renal = system: 786-0 renal
A498 renal = system: A498 renal
A549 NSCLC = system: A549 NSCLC
ACHN renal = system: ACHN renal
CAKI-1 renal = system: CAKI-1 renal
CCRF-CEM leukemia = system: CCRF-CEM leukemia
COLO 205 colon = system: COLO 205 colon
DLD-1 colon = system: DLD-1 colon
DMS 114 small cell lung = system: DMS 114 small cell lung
DMS 273 small cell lung = system: DMS 273 small cell lung
EKVX NSCLC = system: EKVX NSCLC
HCC-2998 colon = system: HCC-2998 colon
HCT-116 colon = system: HCT-116 colon
HCT-15 colon = system: HCT-15 colon
HL-60(TB) leukemia = system: HL-60(TB) leukemia
HOP-18 NSCLC = system: HOP-18 NSCLC
HOP-62 NSCLC = system: HOP-62 NSCLC
HT29 colon = system: HT29 colon
IGROV1 ovarian = system: IGROV1 ovarian
K-562 leukemia = system: K-562 leukemia
KM12 colon = system: KM12 colon
KM20L2 colon = system: KM20L2 colon
LOX IMVI melanoma = system: LOX IMVI melanoma
LXFL 529 NSCLC = system: LXFL 529 NSCLC
M14 melanoma = system: M14 melanoma
MALME-3M melanoma = system: MALME-3M melanoma
MOLT-4 leukemia = system: MOLT-4 leukemia
NCI-H226 lung = system: NCI-H226 lung
NCI-H23 lung = system: NCI-H23 lung
NCI-H460 lung = system: NCI-H460 lung
NCI-H522 lung = system: NCI-H522 lung
OVCAR-3 ovarian = system: OVCAR-3 ovarian
OVCAR-4 ovarian = system: OVCAR-4 ovarian
OVCAR-8 ovarian = system: OVCAR-8 ovarian
RPMI-8226 leukemia = system: RPMI-8226 leukemia
RXF 393 renal = system: RXF 393 renal
SF-268 CNS = system: SF-268 CNS
SF-295 CNS = system: SF-295 CNS
SF-539 CNS = system: SF-539 CNS
SK-MEL-2 melanoma = system: SK-MEL-2 melanoma
SK-MEL-28 melanoma = system: SK-MEL-28 melanoma
SK-MEL-5 melanoma = system: SK-MEL-5 melanoma
SK-OV-3 ovarian = system: SK-OV-3 ovarian
SN12C renal = system: SN12C renal
SNB-19 CNS = system: SNB-19 CNS
SNB-75 CNS = system: SNB-75 CNS
SNB-78 CNS = system: SNB-78 CNS
SW-620 colon = system: SW-620 colon
TK-10 renal = system: TK-10 renal
U251 CNS = system: U251 CNS
UACC-257 melanoma = system: UACC-257 melanoma
UACC-62 melanoma = system: UACC-62 melanoma
UO-31 renal = system: UO-31 renal
XF 498 CNS = system: XF 498 CNS

**Q.** For `[CH3][Sn]1([CH3])[O]CC(COc2cc(Cl)c(Cl)cc2Cl)[O]1` (stereo not drawn), which GI50 (786-0 renal) is on record?
**A.** > 100 µM

**Q.** What about the TGI (786-0 renal) of the same molecule?
**A.** > 100 µM

**Q.** What about the GI50 (A498 renal) of the same molecule?
**A.** 70 µM

**Q.** What about the TGI (A498 renal) of the same molecule?
**A.** > 100 µM

**Q.** What about the GI50 (A549 NSCLC) of the same molecule?
**A.** 83.6 µM

**Q.** And the TGI (A549 NSCLC)?
**A.** > 100 µM

**Q.** What about the GI50 (ACHN renal) of the same molecule?
**A.** 85.5 µM

**Q.** What about the TGI (ACHN renal) of the same molecule?
**A.** > 100 µM

**Q.** And the GI50 (CAKI-1 renal)?
**A.** 28.1 µM

**Q.** What about the TGI (CAKI-1 renal) of the same molecule?
**A.** 89.3 µM

**Q.** And the GI50 (CCRF-CEM leukemia)?
**A.** 32.5 µM

**Q.** And the TGI (CCRF-CEM leukemia)?
**A.** > 100 µM

**Q.** What about the GI50 (COLO 205 colon) of the same molecule?
**A.** > 100 µM

**Q.** And the TGI (COLO 205 colon)?
**A.** > 100 µM

**Q.** What about the GI50 (DLD-1 colon) of the same molecule?
**A.** 54.5 µM

**Q.** And the TGI (DLD-1 colon)?
**A.** > 100 µM

**Q.** And the GI50 (DMS 114 small cell lung)?
**A.** 50.1 µM

**Q.** What about the TGI (DMS 114 small cell lung) of the same molecule?
**A.** > 100 µM

**Q.** What about the GI50 (DMS 273 small cell lung) of the same molecule?
**A.** > 100 µM

**Q.** What about the TGI (DMS 273 small cell lung) of the same molecule?
**A.** > 100 µM

**Q.** And the GI50 (EKVX NSCLC)?
**A.** 55.9 µM

**Q.** What about the TGI (EKVX NSCLC) of the same molecule?
**A.** > 100 µM

**Q.** And the GI50 (HCC-2998 colon)?
**A.** 62.5 µM

**Q.** What about the TGI (HCC-2998 colon) of the same molecule?
**A.** > 100 µM

**Q.** And the GI50 (HCT-116 colon)?
**A.** 73.7 µM

**Q.** And the TGI (HCT-116 colon)?
**A.** > 100 µM

**Q.** And the GI50 (HCT-15 colon)?
**A.** > 100 µM

**Q.** What about the TGI (HCT-15 colon) of the same molecule?
**A.** > 100 µM

**Q.** And the GI50 (HL-60(TB) leukemia)?
**A.** > 100 µM

**Q.** What about the TGI (HL-60(TB) leukemia) of the same molecule?
**A.** > 100 µM

**Q.** And the GI50 (HOP-18 NSCLC)?
**A.** 75 µM

**Q.** What about the TGI (HOP-18 NSCLC) of the same molecule?
**A.** > 100 µM

**Q.** What about the GI50 (HOP-62 NSCLC) of the same molecule?
**A.** > 100 µM

**Q.** And the TGI (HOP-62 NSCLC)?
**A.** > 100 µM

**Q.** What about the GI50 (HT29 colon) of the same molecule?
**A.** > 100 µM

**Q.** What about the TGI (HT29 colon) of the same molecule?
**A.** > 100 µM

**Q.** And the GI50 (IGROV1 ovarian)?
**A.** 70.3 µM

**Q.** What about the TGI (IGROV1 ovarian) of the same molecule?
**A.** > 100 µM

**Q.** And the GI50 (K-562 leukemia)?
**A.** > 100 µM

**Q.** And the TGI (K-562 leukemia)?
**A.** > 100 µM

**Q.** And the GI50 (KM12 colon)?
**A.** 45.8 µM

**Q.** And the TGI (KM12 colon)?
**A.** > 100 µM

**Q.** What about the GI50 (KM20L2 colon) of the same molecule?
**A.** > 100 µM

**Q.** And the TGI (KM20L2 colon)?
**A.** > 100 µM

**Q.** And the GI50 (LOX IMVI melanoma)?
**A.** > 100 µM

**Q.** And the TGI (LOX IMVI melanoma)?
**A.** > 100 µM

**Q.** What about the GI50 (LXFL 529 NSCLC) of the same molecule?
**A.** 41.2 µM

**Q.** And the TGI (LXFL 529 NSCLC)?
**A.** > 100 µM

**Q.** What about the GI50 (M14 melanoma) of the same molecule?
**A.** 39.6 µM

**Q.** What about the TGI (M14 melanoma) of the same molecule?
**A.** > 100 µM

**Q.** And the GI50 (MALME-3M melanoma)?
**A.** > 100 µM

**Q.** And the TGI (MALME-3M melanoma)?
**A.** > 100 µM

**Q.** What about the GI50 (MOLT-4 leukemia) of the same molecule?
**A.** > 100 µM

**Q.** What about the TGI (MOLT-4 leukemia) of the same molecule?
**A.** > 100 µM

**Q.** What about the GI50 (NCI-H226 lung) of the same molecule?
**A.** 30.7 µM

**Q.** And the TGI (NCI-H226 lung)?
**A.** > 100 µM

**Q.** And the GI50 (NCI-H23 lung)?
**A.** > 100 µM

**Q.** And the TGI (NCI-H23 lung)?
**A.** > 100 µM

**Q.** And the GI50 (NCI-H460 lung)?
**A.** > 100 µM

**Q.** And the TGI (NCI-H460 lung)?
**A.** > 100 µM

**Q.** What about the GI50 (NCI-H522 lung) of the same molecule?
**A.** 16.8 µM

**Q.** And the TGI (NCI-H522 lung)?
**A.** 36.3 µM

**Q.** What about the GI50 (OVCAR-3 ovarian) of the same molecule?
**A.** 42.8 µM

**Q.** And the TGI (OVCAR-3 ovarian)?
**A.** > 100 µM

**Q.** What about the GI50 (OVCAR-4 ovarian) of the same molecule?
**A.** > 100 µM

**Q.** And the TGI (OVCAR-4 ovarian)?
**A.** > 100 µM

**Q.** And the GI50 (OVCAR-8 ovarian)?
**A.** > 100 µM

**Q.** And the TGI (OVCAR-8 ovarian)?
**A.** > 100 µM

**Q.** What about the GI50 (RPMI-8226 leukemia) of the same molecule?
**A.** > 100 µM

**Q.** And the TGI (RPMI-8226 leukemia)?
**A.** > 100 µM

**Q.** What about the GI50 (RXF 393 renal) of the same molecule?
**A.** 29.1 µM

**Q.** And the TGI (RXF 393 renal)?
**A.** > 100 µM

**Q.** And the GI50 (SF-268 CNS)?
**A.** 74.9 µM

**Q.** What about the TGI (SF-268 CNS) of the same molecule?
**A.** > 100 µM

**Q.** What about the GI50 (SF-295 CNS) of the same molecule?
**A.** 38.8 µM

**Q.** And the TGI (SF-295 CNS)?
**A.** > 100 µM

**Q.** And the GI50 (SF-539 CNS)?
**A.** 24.7 µM

**Q.** And the TGI (SF-539 CNS)?
**A.** > 100 µM

**Q.** What about the GI50 (SK-MEL-2 melanoma) of the same molecule?
**A.** 62 µM

**Q.** And the TGI (SK-MEL-2 melanoma)?
**A.** > 100 µM

**Q.** And the GI50 (SK-MEL-28 melanoma)?
**A.** > 100 µM

**Q.** What about the TGI (SK-MEL-28 melanoma) of the same molecule?
**A.** > 100 µM

**Q.** And the GI50 (SK-MEL-5 melanoma)?
**A.** 49.8 µM

**Q.** What about the TGI (SK-MEL-5 melanoma) of the same molecule?
**A.** > 100 µM

**Q.** And the GI50 (SK-OV-3 ovarian)?
**A.** 85.6 µM

**Q.** What about the TGI (SK-OV-3 ovarian) of the same molecule?
**A.** > 100 µM

**Q.** What about the GI50 (SN12C renal) of the same molecule?
**A.** 89.1 µM

**Q.** And the TGI (SN12C renal)?
**A.** > 100 µM

**Q.** And the GI50 (SNB-19 CNS)?
**A.** > 100 µM

**Q.** What about the TGI (SNB-19 CNS) of the same molecule?
**A.** > 100 µM

**Q.** What about the GI50 (SNB-75 CNS) of the same molecule?
**A.** 23.1 µM

**Q.** And the TGI (SNB-75 CNS)?
**A.** 68.8 µM

**Q.** And the GI50 (SNB-78 CNS)?
**A.** 49.6 µM

**Q.** What about the TGI (SNB-78 CNS) of the same molecule?
**A.** > 100 µM

**Q.** And the GI50 (SW-620 colon)?
**A.** 51 µM

**Q.** And the TGI (SW-620 colon)?
**A.** > 100 µM

**Q.** What about the GI50 (TK-10 renal) of the same molecule?
**A.** > 100 µM

**Q.** What about the TGI (TK-10 renal) of the same molecule?
**A.** > 100 µM

**Q.** What about the GI50 (U251 CNS) of the same molecule?
**A.** > 100 µM

**Q.** And the TGI (U251 CNS)?
**A.** > 100 µM

**Q.** What about the GI50 (UACC-257 melanoma) of the same molecule?
**A.** 99 µM

**Q.** What about the TGI (UACC-257 melanoma) of the same molecule?
**A.** > 100 µM

**Q.** And the GI50 (UACC-62 melanoma)?
**A.** 40.7 µM

**Q.** What about the TGI (UACC-62 melanoma) of the same molecule?
**A.** > 100 µM

**Q.** What about the GI50 (UO-31 renal) of the same molecule?
**A.** 71 µM

**Q.** And the TGI (UO-31 renal)?
**A.** > 100 µM

**Q.** What about the GI50 (XF 498 CNS) of the same molecule?
**A.** 68 µM

**Q.** And the TGI (XF 498 CNS)?
**A.** > 100 µM
